Measured values taken from US11434227B2, “Broad spectrum antibacterial activity of novel bisbenzimidazoles targeting topoisomerase IA and the synergistic composition of bisbenzimidazole with efflux pump inhibitors against pathogenic bacteria” (Jawaharlal Nehru University (JNU), priority 2016, dated 2022).
≈ marks a conversion by molar mass, not a printed value.

Legend:
E. coli K12 mutant ΔemrA = assay: Susceptibility of E. coli K12 and mutants (MIC90); settings: Escherichia coli
Description: (§1) MICs were determined by the broth microdilution method according to CLSI methods (Clinical and Laboratory Standards Institute, 2005). Inoculants were incubated at 37° C. on cation adjusted Mueller Hinton (MH) Broth for 18 to 24 h. Compound were dissolved in media to 10 doubling dilutions from 128 to 0.125 μg/mL. All the bacterial strains were grown in 96 well plate with low evaporation lid (Falcon, Becton Dickinson) in presence of derivatives of benzimidazoles at 0.125, 0.25, 0.5, 1, 2, 4, 8, 16, 32, 64, 128, 256 μg/mL concentrations. […] Plates were read by Tecan Micro-plate Reader at 600 nm.

[1] = test system: Pseudomonas aeruginosa (MTCC1688); assay: Susceptibility (MIC50/MIC90), broth microdilution
Description: as §1

[2] = test system: E. coli K12 mutant ΔTopIB; assay: Susceptibility of E. coli K12 and mutants (MIC90); settings: Escherichia coli
Description: as §1

[3] = test system: E. coli K12 mutant ΔTopIA; assay: Susceptibility of E. coli K12 and mutants (MIC90); settings: Escherichia coli
Description: as §1

Escherichia coli 392 = assay: Susceptibility (MIC50/MIC90), broth microdilution
Description: as §1

[4] = test system: Klebsiella planticola (K589); assay: Susceptibility (MIC50/MIC90), broth microdilution
Description: as §1

[5] = test system: Shigella flexineri (MTCC1457); assay: Susceptibility (MIC50/MIC90), broth microdilution; type: cell-based
Enterococcus sp. (1365) = assay: Susceptibility (MIC50/MIC90), broth microdilution
Description: as §1

[6] = test system: Acinetobacter baumannii (MTCC1920); assay: Susceptibility (MIC50/MIC90), broth microdilution
Description: as §1

[7] = test system: Klebsiella planticola (K1164); assay: Susceptibility (MIC50/MIC90), broth microdilution
Description: as §1

Staphylococcus sp. (982) = assay: Susceptibility (MIC50/MIC90), broth microdilution
Description: as §1

E. coli K12 mutant ΔompF = assay: Susceptibility of E. coli K12 and mutants (MIC90); settings: Escherichia coli
Description: as §1

Enterococcus sp. (432) = assay: Susceptibility (MIC50/MIC90), broth microdilution
Description: as §1

E. coli K12 mutant ΔompC = assay: Susceptibility of E. coli K12 and mutants (MIC90); settings: Escherichia coli
Description: as §1

[8] = test system: isogenic efflux deleted strains; assay: Susceptibility of isogenic efflux deleted strains versus wild type; type: cell-based, Escherichia coli; settings: in comparison to wild type strains
[9] = test system: Pseudomonas aeruginosa (MTCC 366); assay: Susceptibility (MIC50/MIC90), broth microdilution; settings: MTCC366
Description: as §1

[10] = test system: Acinetobacter baumannii (AB312); assay: Susceptibility (MIC50/MIC90), broth microdilution
Description: as §1

[11] = test system: Salmonella typhimurium (MTCC 1251); assay: Susceptibility (MIC50/MIC90), broth microdilution; settings: Salmonella enterica
Description: as §1

[12] = test system: Acinetobacter baumannii (AB387); assay: Susceptibility (MIC50/MIC90), broth microdilution
Description: as §1

[13] = test system: Klebsiella planticola (MTCC 2272); assay: Susceptibility (MIC50/MIC90), broth microdilution; settings: MTCC2272
Description: as §1

[14] = test system: Salmonella typhimurium (St412); assay: Susceptibility (MIC50/MIC90), broth microdilution; settings: Salmonella enterica
Description: as §1

Escherichia coli 385 = assay: Susceptibility (MIC50/MIC90), broth microdilution
Description: as §1

Staphylococcus sp. (976) = assay: Susceptibility (MIC50/MIC90), broth microdilution
Description: as §1

[15] = test system: Pseudomonas aeruginosa (Ps162); assay: Susceptibility (MIC50/MIC90), broth microdilution
Description: as §1

Enterococcus sp. (1121) [16] = assay: Susceptibility (MIC50/MIC90), broth microdilution
Description: as §1

[17] = test system: Klebsiella planticola (K235); assay: Susceptibility (MIC50/MIC90), broth microdilution
Description: as §1

[18] = test system: Mycobacterium tuberculosis H37Rv (virulent); assay: Susceptibility of Mycobacterium tuberculosis strains (MIC90); type: cell-based
Enterococcus sp. (2105) [19] = assay: Susceptibility (MIC50/MIC90), broth microdilution
Description: as §1

E. coli K12 mutant ΔtolC = assay: Susceptibility of E. coli K12 and mutants (MIC90); settings: Escherichia coli
Description: as §1

Enterococcus sp.(1150) = assay: Susceptibility (MIC50/MIC90), broth microdilution
Description: as §1

E. coli K12 = assay: Susceptibility of E. coli K12 and mutants (MIC90); settings: Escherichia coli
Description: as §1

[20] = test system: Mycobacterium tuberculosis H37Ra (avirulent); assay: Susceptibility of Mycobacterium tuberculosis strains (MIC90); type: cell-based
M. tuberculosis = assay: Effect on virulent and avirulent strains of M. tuberculosis; type: cell-based, Mycobacterium tuberculosis
E. coli K12 mutant ΔacrA = assay: Susceptibility of E. coli K12 and mutants (MIC90); settings: Escherichia coli
Description: as §1

[21] = test system: Staphylococcus sp. (1016); assay: Susceptibility (MIC50/MIC90), broth microdilution; settings: Staphylococcus
Description: as §1

[22] = test system: Escherichia coli (ATCC 25922); assay: Susceptibility (MIC, PAE, MBC), broth microdilution; settings: Escherichia coli, ATCC25922, Escherichia coli (ATCC 25922); Table 2
Description: as §1

Enterococcus sp. (1367) = assay: Susceptibility (MIC50/MIC90), broth microdilution
Description: as §1

Providencia sp. (P592) = assay: HN12b in combination with efflux pump inhibitors (CB method, FICI)
Description: (§2) 96-well microtiter plates containing MIC25 concentrations of the Efflux pump inhibitor (CCCP, PAβN) and HN12b antimicrobial drugs alone and in CB combination were used. The MICs of the individual drugs HN12b, PAβN and CCCP (0.25 to 128 μg/ml) and of the combinations were determined using the broth microdilution technique as recommended by the CLSI. Briefly, the broth microdilution plates were inoculated with each test organism to yield the appropriate density (10^5 CFU/ml) in 100 μl Mueller-Hinton broth (MHB) and incubated for 24 h at 37° C. in ambient air. One well with no antibiotic was used as a positive growth control on each plate. Plates were read for visual turbidity, and results were recorded after 24 h of incubation at 37° C. in ambient air by using a magnifying mirror reader, as turbidity in wells indicated growth of the microorganism. The MIC was determined as the well in the microtiter plate with the lowest drug concentration at which there was no visible growth. […] MICAB was defined as the MIC of drug A in the presence of drug B; MICBA was defined as the MIC of drug B in the presence of drug A.
(§3) The fractional inhibitory concentration index (FICI) was calculated for each antibiotic in each combination by using the following formula: FICA+FICB=FICI, where FICA equals the MIC of drug A in combination divided by the MIC of drug A alone and FICB equals the MIC of drug B in combination divided by the MIC of drug B alone. The FICIs were interpreted as follows: FICI of ≤0.5 will correspond to synergy; FICI of >0.5 to ≤1 will correspond to additivity; FICI of >1 to ≤4 will correspond to no interaction (indifference), and FICI of >4 will correspond antagonism.

Enterococcus sp. (2105) [23] = assay: as above
Description: as §2, §3

A. baumannii (AB387) = assay: as above
Description: as §2, §3

[24] = test system: K. planticola (MTCC 2272); assay: as above
Description: as §2, §3

[25] = test system: Providencia sp. (MTCC 2102); assay: as above
Description: as §2, §3

E. coli ATCC25922 = assay: as above
Description: as §2, §3

A. baumannii (MTCC1920) = assay: as above
Description: as §2, §3

E. coli KK45 = assay: as above
Description: as §2, §3

Enterococcus sp. (1121) [26] = assay: as above
Description: as §2, §3

P. aeruginosa (Ps 366) = assay: as above
Description: as §2, §3

K. planticola (1164) = assay: as above
Description: as §2, §3

P. aeruginosa (MTCC1688) = assay: as above
Description: as §2, §3

CCCCN1CCN(c2ccc3nc(-c4ccc5[nH]c(-c6ccc(OCC)cc6)nc5c4)[nH]c3c2)CC1 [SP12b, 5-(4-butylpiperazin-1-yl)-2′-(4-ethoxyphenyl)-1H,1′H-2,5′-bibenzo[d]imidazole]
MIC90 (E. coli K12 mutant ΔemrA): 7.4 µg/mL (≈ 15 µM)
MIC50 [1]: > 128 µg/mL
MIC90 [1]: 128 µg/mL (≈ 259 µM)
MIC90 [2]: 17.8 µg/mL (≈ 36 µM)
MIC90 [3]: 5.7 µg/mL (≈ 11.5 µM)
MIC50 (Escherichia coli 392): 1.8 µg/mL (≈ 3.64 µM)
MIC90 (Escherichia coli 392): 60 µg/mL (≈ 121 µM)
MIC50 [4]: 3.4 µg/mL (≈ 6.87 µM)
MIC90 [4]: 6.8 µg/mL (≈ 13.7 µM)
MIC50 [5]: 1.24 µg/mL (≈ 2.51 µM)
MIC90 [5]: 3.01 µg/mL (≈ 6.09 µM)
MIC50 (Enterococcus sp. (1365)): < 0.25 µg/mL
MIC90 (Enterococcus sp. (1365)): 2 µg/mL (≈ 4.04 µM)
MIC50 [6]: > 128 µg/mL
MIC90 [6]: 128 µg/mL (≈ 259 µM)
MIC50 [7]: > 128 µg/mL
MIC90 [7]: 128 µg/mL (≈ 259 µM)
MIC50 (Staphylococcus sp. (982)): > 128 µg/mL
MIC90 (Staphylococcus sp. (982)): > 128 µg/mL
MIC90 (E. coli K12 mutant ΔompF): 30.9 µg/mL (≈ 62.5 µM)
MIC50 (Enterococcus sp. (432)): > 128 µg/mL
MIC90 (Enterococcus sp. (432)): > 128 µg/mL
MIC90 (E. coli K12 mutant ΔompC): 30.9 µg/mL (≈ 62.5 µM)
sensitisation of efflux deleted strains [8]: more sensitised
MIC50 [9]: 0.4 µg/mL (≈ 0.809 µM)
MIC90 [9]: 0.8 µg/mL (≈ 1.62 µM)
MIC50 [10]: 14.6 µg/mL (≈ 29.5 µM)
MIC90 [10]: 28.6 µg/mL (≈ 57.8 µM)
MIC50 [11]: < 0.25 µg/mL
MIC90 [11]: 0.25 µg/mL (≈ 0.505 µM)
MIC50 [12]: 12 µg/mL (≈ 24.3 µM)
MIC90 [12]: 16 µg/mL (≈ 32.3 µM)
MIC50 [13]: > 128 µg/mL
MIC90 [13]: 128 µg/mL (≈ 259 µM)
MIC50 [14]: < 0.25 µg/mL
MIC90 [14]: 0.25 µg/mL (≈ 0.505 µM)
MIC50 (Escherichia coli 385): 15 µg/mL (≈ 30.3 µM)
MIC90 (Escherichia coli 385): 27 µg/mL (≈ 54.6 µM)
MIC50 (Staphylococcus sp. (976)): < 0.25 µg/mL
MIC90 (Staphylococcus sp. (976)): 0.42 µg/mL (≈ 0.849 µM)
MIC50 [15]: 40.5 µg/mL (≈ 81.9 µM)
MIC90 [15]: 70.3 µg/mL (≈ 142 µM)
MIC50 (Enterococcus sp. (1121) [16]): < 0.25 µg/mL
MIC90 (Enterococcus sp. (1121) [16]): 0.92 µg/mL (≈ 1.86 µM)
MIC50 [17]: 25.9 µg/mL (≈ 52.4 µM)
MIC90 [17]: 59.5 µg/mL (≈ 120 µM)
MIC90 [18]: 9.8 µg/mL (≈ 19.8 µM)
MIC50 (Enterococcus sp. (2105) [19]): 3.7 µg/mL (≈ 7.48 µM)
MIC90 (Enterococcus sp. (2105) [19]): 9.08 µg/mL (≈ 18.4 µM)
MIC90 (E. coli K12 mutant ΔtolC): 2.8 µg/mL (≈ 5.66 µM)
MIC50 (Enterococcus sp.(1150)): < 0.25 µg/mL
MIC90 (Enterococcus sp.(1150)): 2 µg/mL (≈ 4.04 µM)
MIC90 (E. coli K12): 32 µg/mL (≈ 64.7 µM)
MIC90 [20]: 1.78 µg/mL (≈ 3.6 µM)
effect on M. tuberculosis (M. tuberculosis): effective against M. tuberculosis
MIC90 (E. coli K12 mutant ΔacrA): 3.9 µg/mL (≈ 7.88 µM)
MIC50 [21]: < 0.25 µg/mL
MIC90 [21]: 0.92 µg/mL (≈ 1.86 µM)
MIC50 [22]: 9.5 µg/mL (≈ 19.2 µM)
MIC90 [22]: 24.9 µg/mL (≈ 50.3 µM)
MIC50 (Enterococcus sp. (1367)): < 0.25 µg/mL
MIC90 (Enterococcus sp. (1367)): 1 µg/mL (≈ 2.02 µM)

N#CC(C#N)=NNc1cccc(Cl)c1 [CCCP, carbonyl cyanide-m-chlorophenyl hydrazone, reference compound]
MIC90 (Providencia sp. (P592); Providencia): 67.2 µg/mL
MIC90 (Enterococcus sp. (2105) [23]; Enterococcus): 27.7 µg/mL
MIC90 (A. baumannii (AB387); Acinetobacter baumannii): 12 µg/mL
MIC90 ([24]; Klebsiella planticola, MTCC2272): 13.9 µg/mL
MIC90 ([25]; Providencia, MTCC2102): 10.9 µg/mL
MIC90 (E. coli ATCC25922; Escherichia coli, ATCC25922): 11.8 µg/mL
MIC90 (A. baumannii (MTCC1920); Acinetobacter baumannii, MTCC1920): 30.2 µg/mL
MIC90 (E. coli KK45; Escherichia coli, KK45): 12.3 µg/mL
MIC90 (Enterococcus sp. (1121) [26]; Enterococcus): 16.2 µg/mL
MIC90 (P. aeruginosa (Ps 366); Pseudomonas aeruginosa): 128 µg/mL
MIC90 (K. planticola (1164); Klebsiella planticola): 14.7 µg/mL
MIC90 (P. aeruginosa (MTCC1688); Pseudomonas aeruginosa, MTCC1688): 128 µg/mL

phenylalanine-arginine-β-naphthylamide [PAβN, reference compound]
(BA) MIC90 (Providencia sp. (P592); Providencia sp. (P592), PAβN in presence of HN12b): 38 µg/mL
MIC90 (Providencia sp. (P592); Providencia sp. (P592), single drug alone (A, B, C)): >128 µg/mL
(BA) MIC90 (Enterococcus sp. (2105) [23]; Enterococcus sp. (2105), PAβN in presence of HN12b): 59 µg/mL
MIC90 (Enterococcus sp. (2105) [23]; Enterococcus sp. (2105), single drug alone (A, B, C)): >128 µg/mL
(BA) MIC90 (A. baumannii (AB387); A. baumannii (AB387), PAβN in presence of HN12b): 32 µg/mL
MIC90 (A. baumannii (AB387); A. baumannii (AB387), single drug alone (A, B, C)): >128 µg/mL
(BA) MIC90 ([24]; K. planticola (MTCC 2272), PAβN in presence of HN12b): 62 µg/mL
MIC90 ([24]; K. planticola (MTCC 2272), single drug alone (A, B, C)): >128 µg/mL
(BA) MIC90 ([25]; Providencia sp. (MTCC 2102), PAβN in presence of HN12b): 58 µg/mL
MIC90 ([25]; Providencia sp. (MTCC 2102), single drug alone (A, B, C)): >128 µg/mL
(BA) MIC90 (E. coli ATCC25922; E. coli ATCC25922, PAβN in presence of HN12b): 4.8 µg/mL
MIC90 (E. coli ATCC25922; E. coli ATCC25922, single drug alone (A, B, C)): 64 µg/mL
(BA) MIC90 (A. baumannii (MTCC1920); A. baumannii (MTCC1920), PAβN in presence of HN12b): 59 µg/mL
MIC90 (A. baumannii (MTCC1920); A. baumannii (MTCC1920), single drug alone (A, B, C)): >128 µg/mL
(BA) MIC90 (E. coli KK45; E. coli KK45, PAβN in presence of HN12b): 10 µg/mL
(BA) MIC90 (Enterococcus sp. (1121) [26]; Enterococcus sp. (1121), PAβN in presence of HN12b): 63 µg/mL
MIC90 (Enterococcus sp. (1121) [26]; Enterococcus sp. (1121), single drug alone (A, B, C)): >128 µg/mL
(BA) MIC90 (P. aeruginosa (Ps 366); P. aeruginosa (Ps 366), PAβN in presence of HN12b): 55 µg/mL
MIC90 (P. aeruginosa (Ps 366); P. aeruginosa (Ps 366), single drug alone (A, B, C)): 120.2 µg/mL
(BA) MIC90 (K. planticola (1164); K. planticola (1164), PAβN in presence of HN12b): 62 µg/mL
MIC90 (K. planticola (1164); K. planticola (1164), single drug alone (A, B, C)): >128 µg/mL
(BA) MIC90 (P. aeruginosa (MTCC1688); P. aeruginosa (MTCC1688), PAβN in presence of HN12b): 60 µg/mL
MIC90 (P. aeruginosa (MTCC1688); P. aeruginosa (MTCC1688), single drug alone (A, B, C)): 123 µg/mL
